Measured values from article PMC3461162 (British Journal of Cancer, 2012).

Experiments:
[1] = Plasma pharmacokinetics, non-compartmental analysis; assay type: in vivo, human; settings: for half-life / Tmax / AUC(0-t) / AUC / Cmax / Vd/F: human, plasma, oral; for AUC(0-t): AUC0–12, Gmean (range); for Vd/F: Vss/F, Amean (range)
[2] = Urine pharmacokinetics after single dose; assay type: in vivo, human; settings: for CL renal: human, urine, oral, CLR, Amean (n) (range); for fe (0–24), dose fraction excreted unchanged in the urine, Amean (n) (range): zero to 24 h post dose
[3] = 60 mg, single dose, 60 mg tablet (n=7)
[4] = 90 mg, single dose, 90 mg tablet (n=11)
[5] = 120 mg, single dose, 120 mg tablet (n=10)

COc1ccc(-c2ccc3c(N4CCOC[C@@H]4C)nc(N4CCOC[C@@H]4C)nc3n2)cc1CO [AZD8055]
half-life ([1]; 40 mg, t1/2, Amean (range), single dose, 40 mg solution (n=6)): 2.65 h
half-life ([1]; 40 mg, t1/2, Amean (range), single dose, 40 mg tablet (n=7)): 2.28 h
half-life ([1]; 40 mg, t1/2 ss, Amean (n) (range), following BID dosing, 40 mg BID solution): 2.13 h
half-life ([1]; 40 mg, t1/2 ss, Amean (n) (range), following BID dosing, 40 mg BID tablet): 3.04 h
Tmax ([1]; 40 mg, tmax ss, Median (n) (range), following BID dosing, 40 mg BID solution): 0.25 h
Tmax ([1]; 40 mg, tmax ss, Median (n) (range), following BID dosing, 40 mg BID tablet): 1 h
Tmax ([1]; 40 mg, tmax, Median (range), single dose, 40 mg solution (n=6)): 0.37 h
Tmax ([1]; 40 mg, tmax, Median (range), single dose, 40 mg tablet (n=7)): 1 h
AUC(0-t) [1, 3]: 131 ng·h/mL
AUC ([1]; 60 mg, AUC, Gmean (range), single dose, 60 mg tablet (n=7)): 136 ng·h/mL
AUC ([1]; 60 mg, AUCss, Gmean (n) (range), following BID dosing, 60 mg BID tablet): 178 ng·h/mL
Cmax ([1]; 60 mg, Cmax ss, Gmean (n) (range), following BID dosing, 60 mg BID tablet): 82.8 ng/mL
Cmax ([1]; 60 mg, Cmax, Gmean (range), single dose, 60 mg tablet (n=7)): 57.1 ng/mL
Vd/F [1, 3]: 1770 L
half-life ([1]; 60 mg, t1/2, Amean (range), single dose, 60 mg tablet (n=7)): 2.37 h
half-life ([1]; 60 mg, t1/2 ss, Amean (n) (range), following BID dosing, 60 mg BID tablet): 2.81 h
Tmax ([1]; 60 mg, tmax ss, Median (n) (range), following BID dosing, 60 mg BID tablet): 1 h
Tmax ([1]; 60 mg, tmax, Median (range), single dose, 60 mg tablet (n=7)): 0.5 h
Cmax ([1]; 90 mg): 70.1 ng/mL
half-life ([1]; 90 mg): 2.36 h
AUC(0-t) [1, 4]: 130 ng·h/mL
AUC ([1]; 90 mg, AUC, Gmean (range), single dose, 90 mg tablet (n=11)): 134 ng·h/mL
AUC ([1]; 90 mg, AUCss, Gmean (n) (range), following BID dosing, 90 mg BID tablet): 122 ng·h/mL
Cmax ([1]; 90 mg, Cmax ss, Gmean (n) (range), following BID dosing, 90 mg BID tablet): 70 ng/mL
Vd/F [1, 4]: 2450 L
half-life ([1]; 90 mg, t1/2 ss, Amean (n) (range), following BID dosing, 90 mg BID tablet): 2.63 h
Tmax ([1]; 90 mg, tmax ss, Median (n) (range), following BID dosing, 90 mg BID tablet): 0.5 h
Tmax ([1]; 90 mg, tmax, Median (range), single dose, 90 mg tablet (n=11), MTD): 0.5 h
AUC(0-t) [1, 5]: 280 ng·h/mL
AUC ([1]; 120 mg, AUC, Gmean (range), single dose, 120 mg tablet (n=10)): 294 ng·h/mL
AUC ([1]; 120 mg, AUCss, Gmean (n) (range), following BID dosing, 120 mg BID tablet): 501 ng·h/mL
Cmax ([1]; 120 mg, Cmax ss, Gmean (n) (range), following BID dosing, 120 mg BID tablet): 355 ng/mL
Cmax ([1]; 120 mg, Cmax, Gmean (range), single dose, 120 mg tablet (n=10)): 177 ng/mL
Vd/F [1, 5]: 1370 L
half-life ([1]; 120 mg, t1/2, Amean (range), single dose, 120 mg tablet (n=10)): 3.14 h
half-life ([1]; 120 mg, t1/2 ss, Amean (n) (range), following BID dosing, 120 mg BID tablet): 2.45 h
Tmax ([1]; 120 mg, tmax ss, Median (n) (range), following BID dosing, 120 mg BID tablet): 0.5 h
Tmax ([1]; 120 mg, tmax, Median (range), single dose, 120 mg tablet (n=10)): 0.5 h
half-life ([1]; mean t1/2, single and multiple doses across all cohorts): 1.7 to 3.1 h
Tmax ([1]; median tmax, single and multiple doses across all cohorts): ~0.5 h
Oral bioavailability ([1]; oral dosing in patients): orally bioavailable
tmax, Median (range) ([1]; single dose, 90 mg tablet (n=11), MTD): 1.00 (0.25–4) h
Dose proportionality of exposure ([1]; single dosing, all cohorts): proportional increases in exposure with increasing dose
Dose excreted unchanged in the urine ([2]; all dose levels, first 24 h following the single dose): < 0.25%
CL renal ([2]; 10 mg, single dose, 10 mg solution): 1.95 mL/min
CL renal ([2]; 20 mg, single dose, 20 mg solution): 1.29 mL/min
CL renal ([2]; 40 mg, single dose, 40 mg solution): 1.78 mL/min
CL renal ([2]; 40 mg, single dose, 40 mg tablet): 3.68 mL/min
CL renal ([2]; 60 mg, single dose, 60 mg tablet): 2.67 mL/min
CL renal ([2]; 90 mg, single dose, 90 mg tablet): 1.75 mL/min
CL renal ([2]; 120 mg, single dose, 120 mg tablet): 1.68 mL/min
Renal clearance ([2]; single dose): low renal clearance
fe (0–24), dose fraction excreted unchanged in the urine, Amean (n) (range) ([2]; single dose, 10 mg solution): 0.0248 (4) (0.0121–0.0438) %
fe (0–24), dose fraction excreted unchanged in the urine, Amean (n) (range) ([2]; single dose, 20 mg solution): 0.0114 (3) (0.00512–0.0207) %
fe (0–24), dose fraction excreted unchanged in the urine, Amean (n) (range) ([2]; single dose, 40 mg solution): 0.0227 (5) (0.00907–0.0423) %
fe (0–24), dose fraction excreted unchanged in the urine, Amean (n) (range) ([2]; single dose, 40 mg tablet): 0.0881 (6) (0.0043–0.224) %
fe (0–24), dose fraction excreted unchanged in the urine, Amean (n) (range) ([2]; single dose, 60 mg tablet): 0.0222 (7) (0.00289–0.0712) %
fe (0–24), dose fraction excreted unchanged in the urine, Amean (n) (range) ([2]; single dose, 90 mg tablet): 0.0231 (9) (0.00155–0.0704) %
fe (0–24), dose fraction excreted unchanged in the urine, Amean (n) (range) ([2]; single dose, 120 mg tablet): 0.0375 (7) (0.00237–0.151) %
